Read-outs that look alike come from different tables or passages of the source.
Columns and labels:
[1] = test system: cervical adenocarcinoma HeLa cells; assay: Cell viability neutral red uptake assay, HeLa; type: cell-based, human; settings: Homo sapiens
HeLa cells = assay: Colony formation assay, HeLa; type: cell-based, human; settings: then fresh medium 7 days

**Q.** Which results are given for `COc1ccc(-c2oc3cc(O)c(OC)c(O)c3c(=O)c2OC)cc1` [santin, 5,7-dihydroxy-3,6,4′-trimethoxyflavone]?
**A.** IC50 ([1]; 24 h, NAC treated (2 mM N-acetyl-L-cysteine preincubation 2 h), read-out: IC50, neutral red uptake assay): 25.6 ± 2.4 µM; IC50 ([1]; 24 h, read-out: IC50 values ± SD in neutral red uptake assay): 5.5 ± 1.3 µM; IC50 ([1]; 24 h, without NAC, read-out: IC50, neutral red uptake assay): 18.2 ± 2 µM; IC50 ([1]; 48 h, NAC treated (2 mM N-acetyl-L-cysteine preincubation 2 h), read-out: IC50, neutral red uptake assay): 11.6 ± 1.4 µM; IC50 ([1]; 48 h, read-out: IC50 values ± SD in neutral red uptake assay): 5.4 ± 0.8 µM; IC50 ([1]; 48 h, without NAC, read-out: IC50, neutral red uptake assay): 6.9 ± 1.1 µM; decrease of number of colonies (HeLa cells; santin 6.2 μM for 48 h): 49%; decrease of number of colonies (HeLa cells; santin 12.5 μM for 48 h): 85%

Source: paper PMC10512030, “Prolidase-proline oxidase axis is engaged in apoptosis induction by birch buds flavonol santin in endometrial adenocarcinoma cell line” (Frontiers in Molecular Biosciences, 2023)
